We go through seven molecules from doi:10.1101/2025.05.27.656499v1 (biorxiv, 2025).

Test [1] addresses human CD28 Protein, His Tag (Homo sapiens, UniProt P10747). Nature of the test: MST / TRIC. It is filed as binding.
Test [2] has as its target Biotinylated human CD28 protein (His-tagged, AviTag) (Homo sapiens, UniProt P10747). In words: SPR. It is filed as binding.

Sequence of human CD28 Protein, His Tag (P10747 19-152): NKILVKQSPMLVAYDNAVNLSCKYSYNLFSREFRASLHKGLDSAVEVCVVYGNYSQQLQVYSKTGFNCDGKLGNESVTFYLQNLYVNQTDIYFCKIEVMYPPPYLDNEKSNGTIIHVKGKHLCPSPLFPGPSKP
Sequence of Biotinylated human CD28 protein (His-tagged, AviTag) (P10747 19-152 limits assumed): as the sequence (P10747 19-152) above

`O=C(Cc1ccccc1)c1cc(O)c(O)c([N+](=O)[O-])c1` [1F19, Nebicapone] had a Kd in test [1] of 45.1 ± 68.9 µM.

Molecule `CCN(CC)C(=O)/C(C#N)=C/c1cc(O)c(O)c([N+](=O)[O-])c1` [1I03, Entacapone] returned a Kd in test [1] of 45.6 ± 52.1 µM.

Molecule `CN1c2ccc([N+](=O)[O-])cc2N=C(c2ccc(C(=O)O)cc2)c2cc3c(cc21)C(C)(C)CCC3(C)C` [1K19, HX531] came in with a Kd in test [1] of 245 ± 151 µM.

`Nc1c(C(=O)O)c2nc3c(C(=O)O)cccc3oc-2cc1=O` [1O03, Cinnabarinic acid] displayed a Kd in test [1] of 14.6 ± 8.23 µM.

Turning to `CNc1nc2ccccc2n2c(-c3ccc(O)c(O)c3)cnc12` [2B06, EAPB 02303], the Kd in test [1] is 8.37 ± 4.42 µM.

For the molecule `Cc1nc(C#Cc2ccnc(Cl)c2)c(C)n1-c1ccc(OC(F)(F)F)cc1` [2B10, CTEP], the results for the Kd in test [1] and in test [2] were 236 ± 110 µM and 181 ± 53 µM, respectively.

`CC(C)=CCC/C(C)=C/CC/C(C)=C/C=C/C(C)=C/C(=O)O` [2L10, Peretinoin] gave a dissociation constant Kd in test [1] of 283 ± 398 µM.
